Source: paper PMC8746328, “Three New Isoprenylated Flavones from Artocarpus chama Stem and Their Bioactivities” (Molecules, 2021)
In brackets after ≈: the same amount, converted by molar mass. Like-named read-outs stand apart in the source and are kept apart here.

How the values were obtained:
[1] = molecular target: tyrosinase enzyme; test: Enzymatic antityrosinase activity, dopachrome method (L-Dopa substrate); format: biochemical; conditions: pH 6.8, 25 °C
Method: Antityrosinase activity was determined by the dopachrome method. L-dopa was used as the substrate. Oxidation of L-Dopa to dopachrome which, represented by red color, could be detected by visible light at 492 nm. Briefly, 140 µL of phosphate buffer pH 6.8, 20 µL of sample solution (200 µg/mL), and 2 µL of tyrosinase enzyme solution (203.3 unit/mL) were mixed in a 96-well plate at 25 °C for 10 min. Then, 20 µL of L-Dopa (0.85 mM) was added, and optical density (OD) was detected. After incubation at 25 °C for 20 min, OD was detected again. Dimethyl sulfoxide (DMSO) was used as a negative control. […] The percent inhibition of tyrosinase reaction was calculated by the following equation:Tyrosinase inhibition (%) = [1 − (OD492 of sample/OD492 of control)] × 100.

[2] = system: Cutibacterium acnes (DMST 14916); test: Antimicrobial activity, broth microdilution; format: cell-based; conditions: C. acnes
Method: (§1) Microorganisms that cause skin infection, such as Staphylococcus aureus (ATTC 25923), Staphylococcus epidermidis (TISTR 517), Cutibacterium acnes (DMST 14916), and methicillin-resistant Staphylococcus aureus (DMST20654),t were selected for this study. The isolated compounds were determined for minimum inhibitory concentration (MIC) and minimum bactericidal concentration (MBC) by a modified broth microdilution method. Briefly, 20 µL of the test samples (dilution series ranging from 2560 to 1.25 µg/mL) was added in wells 1 to 12. Then, 80 µL of media was added into each well. Next, 100 µL of the inoculum (concentration 10^6 CFU/mL) was added in each well. The final concentration of inoculum in each well was 5 × 10^5 CFU/mL. Then, the cultures were incubated follow the conditions. Incubation mixtures showing positive results of inhibitory effect (MIC) were streaked on media agar, and then incubated by following the conditions.

[3] = system: Staphylococcus aureus (ATTC 25923); test: Antimicrobial activity, broth microdilution; format: cell-based; conditions: S. aureus
Method: as §1

[4] = system: Staphylococcus epidermidis (TISTR 517); test: Antimicrobial activity, broth microdilution; format: cell-based; conditions: TISTR517, S. epidermidis
Method: as §1

[5] = system: methicillin-resistant Staphylococcus aureus (DMST20654); test: Antimicrobial activity, broth microdilution; format: cell-based; conditions: MRSA
Method: as §1

[6] = system: B16F1 melanoma cells; test: Intracellular antityrosinase activity; format: cell-based, murine; conditions: 50 µg/mL, 48 h
Method: (§2) Murine melanoma B16-F1 cells (CLS-400122) were cultured in DMEM or Dulbecco’s modified Eagle medium containing 10% FBS heat-inactivated fetal bovine serum at 37 °C in a humidified atmosphere with 5% CO2. When cells reached 70–80% confluence cell viability, cellular tyrosinase activity and melanin content were measured. First, 3 × 10^5 cells/well were seeded in 12-well plates and allowed to adhere at 37 °C for 12 h. Cells were treated with test samples; control cells were treated with 0.5% DMSO. After 48 h incubation, cells were lysed with RIPA and centrifuged at 14,000 rpm for 20 min (4 °C) in order to separate the supernatant for measurement of tyrosinase activity, and the cell pellet was measured for melanin content. The supernatant was collected for determination of protein content by the Bradford method, with bovine serum albumin (BSA) used as a standard. The supernatant of lysate cells and 2 mg/mL L-Dopa were added to a 96-well plate and incubated at 25 °C for 1 h. After that, optical densities were determined at 492 nm. Tyrosinase inhibition was then calculated.

[7] = system: B16F1 melanoma cells; test: Melanin content; format: cell-based, murine; conditions: 50 µg/mL, 48 h
Method: as §2, with “Cell pellets were dissolved” for “The supernatant was collected for determination of protein content by the Bradford method,”, “1M NaOH” for “bovine serum albumin (BSA) used as a standard. The supernatant of lysate cells and 2 mg/mL L-Dopa were added to a 96-well plate”, “55” for “25”, “Melanin content was calculated by comparison with the standard curve of synthetic melanin” for “After that, optical densities were determined”, “475” for “492”, “nm.” for “nm. Tyrosinase inhibition was then calculated.”

Row | IC50 on tyrosinase inhibitory activity [1] [µg/mL] | MIC [2] [µg/mL] | MIC [3] [µg/mL] | MIC [4] [µg/mL] | MIC ([5]; read-out: MIC) [µg/mL] | SMILES | MBC [2] [µg/mL] | MBC [3] [µg/mL] | MBC [4] [µg/mL] | MBC ([5]; read-out: MBC) [µg/mL] | Intracellular antityrosinase activity (result in words) [6] | Intracellular antityrosinase activity (result in words) ([6]; listed as artocarpanone) | Melanin content (result in words) [7] | MBC [5] [µg/mL] | MIC [5] [µg/mL]
1 | 135.70 ± 1.16 (≈ 286 µM) | > 256 | 256 (≈ 539 µM) | 256 (≈ 539 µM) | > 256 | CC(C)=CCCC(C)=CCCC(C)=CCc1cc(-c2cc(=O)c3c(O)cc(O)cc3o2)ccc1O [Compound 1, 3′-Farnesylapigenin] | > 256 | > 256 | > 256 | > 256 | – | – | – | – | –
2 | >200 | 128 (≈ 331 µM) | 16 (≈ 41.4 µM) | 16 (≈ 41.4 µM) | 16 (≈ 41.4 µM) | CC(C)=CC(O)c1c(-c2cc(O)c(O)cc2O)oc2cc(O)cc(O)c2c1=O (stereo not shown) [Compound 2, 3-(Hydroxyprenyl) isoetin] | > 256 | 32 (≈ 82.8 µM) | 32 (≈ 82.8 µM) | 64 (≈ 166 µM) | – | – | – | – | –
3 | >200 | 128 (≈ 333 µM) | 4 (≈ 10.4 µM) | 16 (≈ 41.6 µM) | 4 (≈ 10.4 µM) | COc1cc(O)c(-c2oc3cc(O)cc(O)c3c(=O)c2CC=C(C)C)cc1O [Compound 3, 3-Prenyl-5,7,2′,5′-tetrahydroxy-4′-methoxyflavone] | > 256 | 16 (≈ 41.6 µM) | 64 (≈ 167 µM) | 32 (≈ 83.3 µM) | – | – | – | – | –
4 | – | > 256 | 256 (≈ 847 µM) | 128 (≈ 423 µM) | > 256 | COc1cc([C@@H]2CC(=O)c3c(O)cc(O)cc3O2)ccc1O [Compound 4, Homoeriodictyol] | > 256 | > 256 | 256 (≈ 847 µM) | > 256 | – | – | – | – | –
5 | 38.78 ± 1.02 (≈ 128 µM) | 32 (≈ 106 µM) | 64 (≈ 212 µM) | 64 (≈ 212 µM) | 128 (≈ 423 µM) | COc1cc(O)c2c(c1)O[C@H](c1ccc(O)cc1O)CC2=O [Compound 6, Artocarpanone] | 64 (≈ 212 µM) | 256 (≈ 847 µM) | 128 (≈ 423 µM) | > 256 | exhibited antityrosinase activity | exhibited intracellular antityrosinase activity | could reduce the amount of melanin content | – | –
6 | >200 | 8 (≈ 18.3 µM) | 2 (≈ 4.58 µM) | 2 (≈ 4.58 µM) | 2 (≈ 4.58 µM) | COc1cc2oc(-c3ccc(O)cc3O)c(CC=C(C)C)c(=O)c2c(O)c1/C=C/C(C)C [Compound 8, artocarpin] | 32 (≈ 73.3 µM) | 4 (≈ 9.16 µM) | 32 (≈ 73.3 µM) | 2 (≈ 4.58 µM) | – | – | – | – | –

The remaining lines, values behind:

Row | SMILES | IC50 on tyrosinase inhibitory activity [1] [µg/mL] | MIC [2] [µg/mL] | MIC [3] [µg/mL] | MIC [4] [µg/mL] | MIC ([5]; read-out: MIC) [µg/mL] | MBC [2] [µg/mL] | MBC [3] [µg/mL] | MBC [4] [µg/mL] | MBC ([5]; read-out: MBC) [µg/mL] | Intracellular antityrosinase activity (result in words) [6] | Intracellular antityrosinase activity (result in words) ([6]; listed as artocarpanone) | Melanin content (result in words) [7] | MBC [5] [µg/mL] | MIC [5] [µg/mL]
7 | CC1(C)C=Cc2c(cc3oc4c(c(=O)c3c2O)CC2c3c(c(O)cc(O)c3-4)OC2(C)C)O1 (stereo not shown) [Compound 5, Isocycloartobiloxanthone] | >200 | 256 (≈ 589 µM) | 4 (≈ 9.21 µM) | 4 (≈ 9.21 µM) | 16 (≈ 36.8 µM) | > 256 | 8 (≈ 18.4 µM) | 8 (≈ 18.4 µM) | 64 (≈ 147 µM) | – | – | – | – | –
8 | O=C1C[C@@H](c2ccc(O)cc2)Oc2cc(O)cc(O)c21 [Compound 7, Naringenin] | >200 | > 256 | > 256 | 256 (≈ 940 µM) | > 256 | > 256 | > 256 | > 256 | > 256 | – | – | – | – | –
9 | Cc1onc(-c2ccccc2)c1C(=O)N[C@@H]1C(=O)N2[C@@H]1SC(C)(C)[C@@H]2C(=O)O [Oxa, Oxacillin, reference compound] | – | 0.5 (≈ 1.25 µM) | 0.125 (≈ 0.311 µM) | 0.5 (≈ 1.25 µM) | – | 0.5 (≈ 1.25 µM) | 0.125 (≈ 0.311 µM) | 0.5 (≈ 1.25 µM) | – | – | – | – | – | –
10 | CN[C@H](CC(C)C)C(=O)N[C@H]1C(=O)N[C@@H](CC(N)=O)C(=O)N[C@H]2C(=O)N[C@H]3C(=O)N[C@H](C(=O)N[C@H](C(=O)O)c4cc(O)cc(O)c4-c4cc3ccc4O)[C@H](O)c3ccc(c(Cl)c3)Oc3cc2cc(c3O[C@@H]2O[C@H](CO)[C@@H](O)[C@H](O)[C@H]2O[C@H]2C[C@](C)(N)[C@H](O)[C@H](C)O2)Oc2ccc(cc2Cl)[C@H]1O [Van, Vancomycin, reference compound] | – | – | – | – | – | – | – | – | – | – | – | – | 0.5 (≈ 0.345 µM) | 0.125 (≈ 0.0863 µM)
